# From ChEMBL document CHEMBL1201862, “PubChem BioAssay data set” (2004)
#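 In this assay, cells in 96-well plates receive the compound at five concentrations for 48 hours. Endpoints are linearly interpolated between the surrounding concentrations. The concentration for 50% growth inhibition is given as GI50.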 The source made the active and inactive calls. Cut-off read from the data, not from the text of the source: active = GI50 up to about 1.1 µM and inactive = higher.
# How the values were obtained:
# Assay in all cases: inhibition of tumour cell growth, NCI panel, 48 h
# [1] = test system: BT-549
# [2] = test system: CCRF-CEM
# [3] = test system: DU-145
# [4] = test system: EKVX
# [5] = test system: HCT-15
# [6] = test system: IGROV-1
# [7] = test system: KM12
# [8] = test system: MCF7
# [9] = test system: MDA-N
# [10] = test system: NCI-H23
# [11] = test system: NCI/ADR-RES
# [12] = test system: OVCAR-3
# [13] = test system: OVCAR-5
# [14] = test system: SF-268
# [15] = test system: SF-295
# [16] = test system: SK-MEL-5
# [17] = test system: SNB-75
# [18] = test system: U-251
# [19] = test system: UACC-257
# [20] = test system: UACC-62
Compound,GI50 [1],GI50 [2],GI50 [3],GI50 [4],GI50 [5] [µM],GI50 [6],GI50 [7],GI50 [8],GI50 [9],GI50 [10],GI50 [11],GI50 [12],GI50 [13],GI50 [14],GI50 [15],GI50 [16],GI50 [17],GI50 [18],GI50 [19],GI50 [20]
C/C(=N/NC(=S)N1CCCCC1)c1ccccc1O,> 100 µM (inactive),21.7 µM (inactive),> 31.6 µM (inactive),29.9 µM (inactive),> 31.6,> 41.2 µM (inactive),26.1 µM (inactive),14.3 µM (inactive),> 31.6 µM (inactive),> 31.6 µM (inactive),28.2 µM (inactive),16.4 µM (inactive),> 31.6 µM (inactive),21.5 µM (inactive),> 31.6 µM (inactive),60.8 µM (inactive),> 10 µM (inactive),> 31.6 µM (inactive),> 31.6 µM (inactive),> 31.6 µM (inactive)
COc1ccc2nc3cc([N+](=O)[O-])ccc3c(NNc3ccc(Cl)cc3)c2c1,29.9 µM (inactive),22 µM (inactive),38.9 µM (inactive),26.2 µM (inactive),45.5,2.94 µM (inactive),26.1 µM (inactive),11.6 µM (inactive),31.6 µM (inactive),45.2 µM (inactive),32.6 µM (inactive),2.39 µM (inactive),2.31 µM (inactive),43.5 µM (inactive),56.8 µM (inactive),14.7 µM (inactive),40.1 µM (inactive),21.7 µM (inactive),1.01 µM (active),2.44 µM (inactive)
CCCCCCCCCC[C@H](O)[C@H]1CC[C@H]([C@H]2CC[C@H]([C@H](O)CC[C@H](O)CCCCCCC[C@@H](O)CC3=C[C@H](C)OC3=O)O2)O1,68.1 µM (inactive),3.6 µM (inactive),> 10 µM (inactive),23.5 µM (inactive),43.9,15.7 µM (inactive),9.14 µM (inactive),1.52 µM (inactive),8.75 µM (inactive),1.82 µM (inactive),1.61 µM (inactive),18.3 µM (inactive),> 10 µM (inactive),3.57 µM (inactive),1.66 µM (inactive),1.41 µM (inactive),19.1 µM (inactive),> 10 µM (inactive),1.08 µM (active),> 10 µM (inactive)
N#C[BH2-][n+]1cn(C2CC(OP(=O)(O)OCC3OC(n4cnc5c(=O)[nH]c(N)nc54)CC3O)C(CO)O2)c2nc(N)[nH]c(=O)c21 (stereo not given),> 100 µM (inactive),37.8 µM (inactive),> 100 µM (inactive),> 100 µM (inactive),> 100,> 100 µM (inactive),> 100 µM (inactive),62.8 µM (inactive),> 100 µM (inactive),> 100 µM (inactive),> 100 µM (inactive),> 100 µM (inactive),> 100 µM (inactive),44.4 µM (inactive),74.3 µM (inactive),> 100 µM (inactive),> 100 µM (inactive),> 100 µM (inactive),> 100 µM (inactive),> 100 µM (inactive)
COc1ccc(/C=C/C(=O)NCC(NC(=O)/C=C/c2ccc(OC)c(OC)c2)C(=O)O)cc1OC (stereo not given),> 100 µM (inactive),> 100 µM (inactive),> 100 µM (inactive),> 100 µM (inactive),< 0.01,< 0.01 µM (active),> 100 µM (inactive),> 100 µM (inactive),> 100 µM (inactive),> 100 µM (inactive),0.0169 µM (active),> 100 µM (inactive),> 100 µM (inactive),> 100 µM (inactive),> 100 µM (inactive),> 100 µM (inactive),> 100 µM (inactive),> 100 µM (inactive),> 100 µM (inactive),> 100 µM (inactive)
COc1cc(/C=C2\CC/C(=C\c3cc(OC)c(O)c(OC)c3)C2=O)cc(OC)c1O,2.69 µM (inactive),1.85 µM (inactive),2.21 µM (inactive),3.13 µM (inactive),1.4,0.881 µM (active),1.48 µM (inactive),1.91 µM (inactive),2.27 µM (inactive),1.98 µM (inactive),2.79 µM (inactive),2.2 µM (inactive),6.18 µM (inactive),2.3 µM (inactive),3.98 µM (inactive),1.95 µM (inactive),1.19 µM (inactive),2.06 µM (inactive),2.03 µM (inactive),1.35 µM (inactive)
COc1c(C)c(C/C=C(\C)CC/C=C(\C)CCC=C(C)C)c(OC)c(OC)c1OC,> 100 µM (inactive),56.5 µM (inactive),> 100 µM (inactive),83.9 µM (inactive),> 100,> 100 µM (inactive),> 100 µM (inactive),44.2 µM (inactive),76.9 µM (inactive),> 100 µM (inactive),> 100 µM (inactive),> 100 µM (inactive),> 100 µM (inactive),> 100 µM (inactive),75 µM (inactive),74.5 µM (inactive),> 100 µM (inactive),> 100 µM (inactive),64.9 µM (inactive),> 100 µM (inactive)
O=C(O)C1CCN(Cc2oc(CO)cc(=O)c2O)C1 (stereo not given),> 100 µM (inactive),> 100 µM (inactive),> 100 µM (inactive),> 100 µM (inactive),> 100,> 100 µM (inactive),> 100 µM (inactive),> 100 µM (inactive),> 100 µM (inactive),> 100 µM (inactive),> 100 µM (inactive),> 100 µM (inactive),> 100 µM (inactive),> 100 µM (inactive),> 100 µM (inactive),> 100 µM (inactive),> 100 µM (inactive),> 100 µM (inactive),> 100 µM (inactive),> 100 µM (inactive)
O=C(CN1c2ccccc2Sc2ccccc21)N1CCNCC1,> 100 µM (inactive),99.8 µM (inactive),> 100 µM (inactive),> 100 µM (inactive),> 100,71.4 µM (inactive),64.4 µM (inactive),> 100 µM (inactive),> 100 µM (inactive),> 100 µM (inactive),> 100 µM (inactive),> 100 µM (inactive),> 100 µM (inactive),> 100 µM (inactive),> 100 µM (inactive),40.3 µM (inactive),30.9 µM (inactive),56.1 µM (inactive),> 100 µM (inactive),> 100 µM (inactive)
COc1cccc(N2C(=O)C3c4[nH]c5ccccc5c4C4CCCC4C3C2=O)c1 (stereo not given),> 10 µM (inactive),> 10 µM (inactive),> 10 µM (inactive),> 10 µM (inactive),> 10,6.71 µM (inactive),> 10 µM (inactive),> 10 µM (inactive),> 10 µM (inactive),> 10 µM (inactive),3.8 µM (inactive),2.36 µM (inactive),> 10 µM (inactive),9.66 µM (inactive),> 10 µM (inactive),> 10 µM (inactive),2.24 µM (inactive),4.06 µM (inactive),> 10 µM (inactive),> 10 µM (inactive)
NC(=S)N/N=C/c1ncccc1N [TRIAPINE],2.37 µM (inactive),0.466 µM (active),0.681 µM (active),7.55 µM (inactive),1.97,> 10 µM (inactive),4.59 µM (inactive),0.452 µM (active),2.65 µM (inactive),0.332 µM (active),2.04 µM (inactive),2.25 µM (inactive),5.08 µM (inactive),0.925 µM (active),1.21 µM (inactive),0.968 µM (active),0.773 µM (active),1.04 µM (active),> 6.65 µM (inactive),0.546 µM (active)
COc1nncc2[nH]c(-c3ccccc3)cc12,40.5 µM (inactive),44.9 µM (inactive),90.4 µM (inactive),29.4 µM (inactive),53,> 100 µM (inactive),> 100 µM (inactive),49.7 µM (inactive),62.4 µM (inactive),> 100 µM (inactive),76.2 µM (inactive),83.2 µM (inactive),> 100 µM (inactive),65.8 µM (inactive),82.4 µM (inactive),67.8 µM (inactive),58.1 µM (inactive),49 µM (inactive),71.1 µM (inactive),42.3 µM (inactive)
COc1ccc([N+](=O)[O-])c2c(NCCCN(C)C)ccnc12,2.21 µM (inactive),15 µM (inactive),5.42 µM (inactive),4.92 µM (inactive),1.85,1.66 µM (inactive),7 µM (inactive),5.01 µM (inactive),12.1 µM (inactive),2.32 µM (inactive),15.8 µM (inactive),2.39 µM (inactive),5.9 µM (inactive),6.18 µM (inactive),3.61 µM (inactive),2.12 µM (inactive),1.28 µM (inactive),4.93 µM (inactive),3.26 µM (inactive),3.61 µM (inactive)
O=c1c2c(no[n+]2[O-])c2ccccc2n1-c1ccccc1,3.03 µM (inactive),2.25 µM (inactive),20.4 µM (inactive),12.6 µM (inactive),2.94,3.75 µM (inactive),13.9 µM (inactive),4.57 µM (inactive),3.4 µM (inactive),2.44 µM (inactive),14.6 µM (inactive),12.8 µM (inactive),14.8 µM (inactive),8.22 µM (inactive),14.8 µM (inactive),11.1 µM (inactive),10 µM (inactive),5.19 µM (inactive),13 µM (inactive),4.05 µM (inactive)
